According to US20090203577A1 (EXELIXIS, INC., priority 2005, published 2009):

Biological target: T1, human farnesoid X receptor (Homo sapiens, UniProt Q96RI1)
T1 construct: CMX-farnesoid X receptor (full length human farnesoid X receptor); expressed in transfected cells; host or cells: CV-1 African Green Monkey Kidney cells
T1 sequence (Q96RI1 1-472 isoform Q96RI1-2): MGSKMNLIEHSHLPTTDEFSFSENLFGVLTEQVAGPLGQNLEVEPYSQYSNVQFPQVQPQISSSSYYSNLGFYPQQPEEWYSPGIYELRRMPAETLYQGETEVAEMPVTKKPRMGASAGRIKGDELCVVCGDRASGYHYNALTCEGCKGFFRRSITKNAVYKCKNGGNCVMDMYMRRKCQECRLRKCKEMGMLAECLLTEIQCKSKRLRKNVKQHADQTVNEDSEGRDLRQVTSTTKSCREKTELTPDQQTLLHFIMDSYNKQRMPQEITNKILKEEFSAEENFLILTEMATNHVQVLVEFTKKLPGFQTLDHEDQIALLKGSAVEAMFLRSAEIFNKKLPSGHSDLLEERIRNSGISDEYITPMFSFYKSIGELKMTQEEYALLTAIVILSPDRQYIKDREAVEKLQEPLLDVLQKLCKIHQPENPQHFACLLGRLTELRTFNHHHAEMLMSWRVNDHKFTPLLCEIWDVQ
T1 sequence (P19793 1-462 partner): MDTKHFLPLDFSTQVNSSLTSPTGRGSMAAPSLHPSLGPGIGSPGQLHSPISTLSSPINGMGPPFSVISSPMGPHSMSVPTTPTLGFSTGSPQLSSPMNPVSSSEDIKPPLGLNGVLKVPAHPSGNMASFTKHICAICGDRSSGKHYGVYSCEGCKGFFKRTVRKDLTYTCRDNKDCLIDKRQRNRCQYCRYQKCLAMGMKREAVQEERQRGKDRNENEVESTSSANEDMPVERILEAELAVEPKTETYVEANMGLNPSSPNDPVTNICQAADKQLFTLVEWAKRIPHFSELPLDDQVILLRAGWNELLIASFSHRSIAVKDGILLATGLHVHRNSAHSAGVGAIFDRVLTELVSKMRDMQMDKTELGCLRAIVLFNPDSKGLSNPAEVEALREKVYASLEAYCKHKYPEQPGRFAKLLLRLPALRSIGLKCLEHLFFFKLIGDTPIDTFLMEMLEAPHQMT
Test: FXR in vitro assays (farnesoid X receptor/ECREx7 co-transfection assay, TR-FRET assay), Table I
Assay type: cell-based
Conditions: for EC50: agonist activity, one or more of the in vitro assays, read-out: EC50; for Emax: read-out: % Efficacy
Description: The basic co-transfection protocol for measuring the farnesoid X receptor activity is as follows. CV-1 African Green Monkey Kidney cells were plated 24 hours before transfection to achieve approximately 70-80 percent confluency. […] The assay was allowed to continue for an additional 18-20 hours, after which the cells were lysed, with lysis buffer (1% triton X 100, 10% glycerol, 5 mM Dithiothreitol, 1 mM EGTA, 25 mM Tricine, pH 7.8) and the luciferase activity measured in the presence of Luciferase assay buffer (0.73 mM ATP, 22.3 mm Tricine, 0.11 mM EGTA, 0.55 mM Luciferin, 0.15 mM Coenzyme A, 0.5 mM HEPES, 10 mM Magnesium sulphatc) on a standard luminometer plate reader (PE Biosystems, NorthStar Reader), using recommended operating instructions and conditions.
The dose response curves are generated from an 8 point curve with concentrations differing by ½ LOG units. Each point represents the average of 4 wells of data from a 384 well plate. A curve for the data is generated by using the equation:
Y=Bottom+(Top−Bottom)/(1+10̂((Log EC50−X)*HillSlope))
The EC50/IC50 is therefore defined as the concentration at which an agonist or antagonist elicits a response that is half way between the Top (maximum) and Bottom (baseline) values. The EC50/IC50 values represented are the averages of at least 3 independent experiments.

SMILES | EC50 [µM] | Emax [%]
CC(C)OC(=O)C1=CN(C(=O)C2CCCCC2)CC(C)(C)c2c1[nH]c1ccccc21 [Example 1, 1-Methylethyl 1,1-Dimethyl-1,2,3,6-Tetrahydroazepino [4,5-b]Indole-5-CarboxylateE] | 0.01 to 0.1 | > 100
CC(C)OC(=O)C1=CN(C(=O)C2CCCCCC2)CC(C)(C)c2c1[nH]c1ccccc21 [Example 12, 1-Methylethyl 3-[(3,4-Difluorophenyl)Carbonyl]-8-[(f{[2-(Dimethylamino)Ethyl]amino}Carbonyl)Oxy]-1,1-Dimethyl-1,2,3,6-tetrahydroazepino[4,5-b]Indole-5-Carboxylate] | 0.01 to 0.1 | > 100
CC(C)OC(=O)C1=CN(C(=O)CCCN(C)C)CC(C)(C)c2c1[nH]c1ccccc21 [Example 20] | 1 to 10 | –
CC(=O)C1=CNCC(C)(C)c2c1[nH]c1ccccc21 [Example 21] | 1 to 10 | –
CC(C)OC(=O)C1=CN(C(=O)NCCN2CCOCC2)CC(C)(C)c2c1[nH]c1ccccc21 [Example 22, 1-methylethyl 1,1-dimethyl-3-{[(2-morpholin-4-ylethyl)amino]carbonyl}-1,2,3,6-tetrahydroazepino[4,5-b]indole-5-carboxylate] | 1 to 10 | –
CC(C)OC(=O)C1=CN(C(=O)C23C[C@H]4C[C@@H](C2)C[C@@H](C3)C4)CC(C)(C)c2c1[nH]c1ccccc21 [Example 24, 1-methylethyl 1,1-dimethyl-3-[(3s,5s,7s)-tricyclo[3.3.1.1~3,7~]dec-1-ylcarbonyl]-1,2,3,6-tetrahydroazepino [4,5-b]indole-5-carboxylate] | 0.01 to 0.1 | > 100
CCN(CC)CCN(CC)C(=O)N1C=C(C(=O)OC(C)C)c2[nH]c3ccccc3c2C(C)(C)C1 [Example 27, 1-methylethyl 3-({[2-(diethylamino)ethyl](ethyl)amino}carbonyl)-1,1-dimethyl-1,2,3,6-tetrahydro azepino [4,5-b]indole-5-carboxylate] | 1 to 10 | –
CC(C)OC(=O)C1=CN(C(=O)N2CCN(C)CC2)CC(C)(C)c2c1[nH]c1ccc(F)cc21 [Example 32, 1-methylethyl 9-fluoro-1,1-dimethyl-3-[(4-methylpiperazin-1-yl)carbonyl]-1,2,3,6-tetrahydroazepino[4,5-b]indole-5-carboxylate] | 0.1 to 1 | > 100
CC(C)OC(=O)C1=CN(C(=O)N2CCCCCC2)CC(C)(C)c2c1[nH]c1ccccc21 [Example 40, 1-methylethyl 3-(azepan-1-ylcarbonyl)-1,1-dimethyl-1,2,3,6-tetrahydroazepino [4,5-b]indole-5-carboxylate] | 0.001 to 0.01 | > 100
CC(C)OC(=O)C1=CN(C(=O)NC2CCCC2)CC(C)(C)c2c1[nH]c1ccccc21 [Example 44, 1-methylethyl 3-[(cyclopentylamino)carbonyl]-1,1-dimethyl-1,2,3,6-tetrahydroazepino[4,5-b]indole-5-carboxylate] | 0.01 to 0.1 | > 100
CC(C)OC(=O)C1=CN(C(=O)NC2CCCCCC2)CC(C)(C)c2c1[nH]c1ccccc21 [Example 46, 1-methylethyl 3-[(cycloheptylamino)carbonyl]-1,1-dimethyl-1,2,3,6-tetrahydroazepino[4,5-b]indole-5-carboxylate] | 0.01 to 0.1 | > 100
CC(C)OC(=O)C1=CN(C(=O)NCc2ccccc2)CC(C)(C)c2c1[nH]c1ccccc21 [Example 49, 1-methylethyl 1,1-dimethyl-3-{[(phenylmethyl)amino]carbonyl}-1,2,3,6-tetrahydroazepino[4,5-b]indole-5-carboxylate] | 1 to 10 | 80 to 100
CCN(CC)C(=O)N1C=C(C(=O)OC(C)C)c2[nH]c3ccccc3c2C(C)(C)C1 [Example 52, 1-methylethyl 3-[(diethylamino)carbonyl]-1,1-dimethyl-1,2,3,6-tetrahydroazepino[4,5-b]indole-5-carboxylate] | 0.01 to 0.1 | > 100
CC(C)OC(=O)C1=CN(C(=O)N2CCCC(COCCCN(C)C)C2)CC(C)(C)c2c1[nH]c1ccccc21 (centres unmarked) [Example 55, 1-methylethyl 3-{[3-({[3-(dimethylamino)propyl]oxy}methyl)piperidin-1-yl]carbonyl}-1,1-dimethyl-1,2,3,6-tetrahydroazepino[4,5-b]indole-5-carboxylate] | 1 to 10 | –
CC(C)OC(=O)C1=CN(C(=O)N2CCCN(Cc3ccccc3)CC2)CC(C)(C)c2c1[nH]c1ccccc21 [Example 59, 1-methylethyl 1,1-dimethyl-3-{[4-(phenylmethyl)-1,4-diazepan-1-yl]carbonyl}-1,2,3,6-tetrahydroazepino [4,5-b]indole-5-carboxylate] | 0.01 to 0.1 | > 100
CC(C)OC(=O)C1=CN(C(=O)c2c(F)ccc(F)c2Cl)CC(C)(C)c2c1[nH]c1ccccc21 [Example 61, 1-methylethyl 3-[(2-chloro-3,6-difluorophenyl)carbonyl]-1,1-dimethyl-1,2,3,6-tetrahydroazepino[4,5-b]indole-5-carboxylate] | 0.01 to 0.1 | > 100
CC(C)OC(=O)C1=CN(C(=O)c2ccccc2)CC(C)(C)c2c1[nH]c1ccccc21 [Example 62, 1-methylethyl 1,1-dimethyl-3-(phenylcarbonyl)-1,2,3,6-tetrahydroazepino[4,5-b]indole-5-carboxylate] | 0.001 to 0.01 | > 100
CC(C)OC(=O)C1=CN(C(=O)c2ccccc2F)CC(C)(C)c2c1[nH]c1ccccc21 [Example 63, 1-methylethyl 3-[(2-fluorophenyl)carbonyl]-1,1-dimethyl-1,2,3,6-tetrahydroazepino[4,5-b]indole-5-carboxylate] | 0.01 to 0.1 | > 100
CC(C)OC(=O)C1=CN(C(=O)c2ccccc2Cl)CC(C)(C)c2c1[nH]c1ccccc21 [Example 66, 1-methylethyl 3-[(2-chlorophenyl)carbonyl]-1,1-dimethyl-1,2,3,6-tetrahydroazepino[4,5-b]indole-5-carboxylate] | 0.001 to 0.01 | > 100
Cc1ccccc1C(=O)N1C=C(C(=O)OC(C)C)c2[nH]c3ccccc3c2C(C)(C)C1 [Example 68, 1-methylethyl 1,1-dimethyl-3-[(2-methylphenyl)carbonyl]-1,2,3,6-tetrahydroazepino[4,5-b]indole-5-carboxylate] | 0.01 to 0.1 | > 100
COc1ccccc1C(=O)N1C=C(C(=O)OC(C)C)c2[nH]c3ccccc3c2C(C)(C)C1 [Example 69, 1-methylethyl 1,1-dimethyl-3-{[2-(methyloxy)phenyl]carbonyl}-1,2,3,6-tetrahydroazepino[4,5-b]indole-5-carboxylate] | 0.01 to 0.1 | > 100
CC(C)OC(=O)C1=CN(C(=O)c2ccc(F)cc2F)CC(C)(C)c2c1[nH]c1ccccc21 [Example 73, 1-methylethyl 3-[(2,4-difluorophenyl)carbonyl]-1,1-dimethyl-1,2,3,6-tetrahydroazepino[4,5-b]indole-5-carboxylate] | 0.001 to 0.01 | > 100
CC(C)OC(=O)C1=CN(C(=O)c2cccc(F)c2F)CC(C)(C)c2c1[nH]c1ccccc21 [Example 74, 1-methylethyl 3-[(2,3-difluorophenyl)carbonyl]-1,1-dimethyl-1,2,3,6-tetrahydroazepino[4,5-b]indole-5-carboxylate] | 0.001 to 0.01 | > 100
